How the values were obtained:
Assay in all cases: Nanosyn kinase profiling
Type in all cases: biochemical
Conditions in all cases: read-out: Percentage inhibition; for inhibition at 0.1 µM: 0.1 µM inhibitor; for inhibition at 1 µM: 1 µM inhibitor
KIT = molecular target: T1, KIT (Homo sapiens, UniProt P10721)
T1 construct: purchased Nanosyn (enzymatic panel); SGC in-house recombinant human kinases (DSF panel); Invitrogen (ALK1-6)
Summary of the method: (§1)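 Percent inhibition of each kinase was measured with the inhibitor at 0.1 µM and at 1 µM, as part of a 200-kinase human selectivity panel.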

BMX = molecular target: T2, BMX (Homo sapiens, UniProt P51813)
T2 construct: purchased Nanosyn (enzymatic panel); SGC in-house recombinant human kinases (DSF panel); Invitrogen (ALK1-6)
T2 sequence (P51813 1-675): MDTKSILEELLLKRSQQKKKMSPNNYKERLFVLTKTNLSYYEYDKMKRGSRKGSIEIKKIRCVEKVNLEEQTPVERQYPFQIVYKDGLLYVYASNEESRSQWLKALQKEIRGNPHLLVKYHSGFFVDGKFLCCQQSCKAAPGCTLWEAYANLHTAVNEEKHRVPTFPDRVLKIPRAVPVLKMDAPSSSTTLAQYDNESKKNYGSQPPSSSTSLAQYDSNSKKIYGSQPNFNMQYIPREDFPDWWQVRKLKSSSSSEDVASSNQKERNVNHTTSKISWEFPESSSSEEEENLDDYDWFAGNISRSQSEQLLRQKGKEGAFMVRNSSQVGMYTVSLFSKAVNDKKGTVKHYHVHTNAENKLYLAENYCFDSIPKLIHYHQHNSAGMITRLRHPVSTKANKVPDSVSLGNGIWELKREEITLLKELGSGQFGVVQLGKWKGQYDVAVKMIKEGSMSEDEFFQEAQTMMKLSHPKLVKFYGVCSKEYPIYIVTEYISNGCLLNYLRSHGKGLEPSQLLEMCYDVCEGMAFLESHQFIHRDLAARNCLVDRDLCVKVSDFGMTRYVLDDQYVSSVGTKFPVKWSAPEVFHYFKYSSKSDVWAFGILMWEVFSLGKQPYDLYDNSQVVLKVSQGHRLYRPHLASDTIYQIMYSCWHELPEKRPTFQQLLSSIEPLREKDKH
Summary of the method: as §1

MAPK3 = molecular target: T3, MAPK3 (Homo sapiens, UniProt P27361)
T3 construct: purchased Nanosyn (enzymatic panel); SGC in-house recombinant human kinases (DSF panel); Invitrogen (ALK1-6)
T3 sequence (P27361 whole entry): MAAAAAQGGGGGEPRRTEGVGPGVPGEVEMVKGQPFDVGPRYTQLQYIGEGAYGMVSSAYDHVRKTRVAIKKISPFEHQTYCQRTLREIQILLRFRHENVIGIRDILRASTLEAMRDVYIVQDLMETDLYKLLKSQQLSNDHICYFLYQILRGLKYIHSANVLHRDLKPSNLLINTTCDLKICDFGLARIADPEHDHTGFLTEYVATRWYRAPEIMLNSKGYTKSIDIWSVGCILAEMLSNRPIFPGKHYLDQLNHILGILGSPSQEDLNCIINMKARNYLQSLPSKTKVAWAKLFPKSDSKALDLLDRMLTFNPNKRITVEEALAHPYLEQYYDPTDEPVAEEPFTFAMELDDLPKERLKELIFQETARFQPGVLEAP
Summary of the method: as §1

SYK = molecular target: T4, SYK (Homo sapiens, UniProt P43405)
T4 construct: purchased Nanosyn (enzymatic panel); SGC in-house recombinant human kinases (DSF panel); Invitrogen (ALK1-6)
Summary of the method: as §1

PDGFRβ = molecular target: T5, PDGFRβ (Homo sapiens, UniProt P09619)
T5 construct: purchased Nanosyn (enzymatic panel); SGC in-house recombinant human kinases (DSF panel); Invitrogen (ALK1-6)
T5 sequence (P09619 33-1106): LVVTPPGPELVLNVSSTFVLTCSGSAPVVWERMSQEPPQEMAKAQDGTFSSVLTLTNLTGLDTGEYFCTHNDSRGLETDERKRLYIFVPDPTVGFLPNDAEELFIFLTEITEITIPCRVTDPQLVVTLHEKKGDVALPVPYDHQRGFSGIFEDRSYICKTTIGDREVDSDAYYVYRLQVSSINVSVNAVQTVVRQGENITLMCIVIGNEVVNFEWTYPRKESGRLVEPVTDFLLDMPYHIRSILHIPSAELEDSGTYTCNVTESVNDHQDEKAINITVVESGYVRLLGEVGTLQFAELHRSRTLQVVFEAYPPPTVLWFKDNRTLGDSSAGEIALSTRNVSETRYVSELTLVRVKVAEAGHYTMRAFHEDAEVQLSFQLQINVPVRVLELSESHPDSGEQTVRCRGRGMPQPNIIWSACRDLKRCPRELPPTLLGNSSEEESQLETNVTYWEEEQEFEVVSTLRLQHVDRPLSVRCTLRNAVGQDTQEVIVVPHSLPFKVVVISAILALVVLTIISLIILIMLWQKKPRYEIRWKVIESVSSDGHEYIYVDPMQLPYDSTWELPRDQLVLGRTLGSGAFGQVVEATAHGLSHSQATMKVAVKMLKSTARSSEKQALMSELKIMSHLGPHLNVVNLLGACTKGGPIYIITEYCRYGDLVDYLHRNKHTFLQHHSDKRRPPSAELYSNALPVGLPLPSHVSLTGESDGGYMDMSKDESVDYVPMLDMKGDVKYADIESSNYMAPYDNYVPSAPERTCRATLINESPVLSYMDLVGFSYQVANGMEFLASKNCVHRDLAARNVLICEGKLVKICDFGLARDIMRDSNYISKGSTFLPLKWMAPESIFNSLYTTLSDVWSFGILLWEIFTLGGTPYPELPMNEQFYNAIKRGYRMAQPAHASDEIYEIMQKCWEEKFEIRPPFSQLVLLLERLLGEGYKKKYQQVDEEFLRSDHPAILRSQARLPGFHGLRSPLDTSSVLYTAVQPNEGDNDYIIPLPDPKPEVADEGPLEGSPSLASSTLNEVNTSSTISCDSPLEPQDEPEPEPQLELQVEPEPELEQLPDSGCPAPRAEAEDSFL
Summary of the method: as §1

MST1 = molecular target: T6, MST1 (Homo sapiens, UniProt Q13043)
T6 construct: purchased Nanosyn (enzymatic panel); SGC in-house recombinant human kinases (DSF panel); Invitrogen (ALK1-6)
T6 sequence (Q13043 1-487): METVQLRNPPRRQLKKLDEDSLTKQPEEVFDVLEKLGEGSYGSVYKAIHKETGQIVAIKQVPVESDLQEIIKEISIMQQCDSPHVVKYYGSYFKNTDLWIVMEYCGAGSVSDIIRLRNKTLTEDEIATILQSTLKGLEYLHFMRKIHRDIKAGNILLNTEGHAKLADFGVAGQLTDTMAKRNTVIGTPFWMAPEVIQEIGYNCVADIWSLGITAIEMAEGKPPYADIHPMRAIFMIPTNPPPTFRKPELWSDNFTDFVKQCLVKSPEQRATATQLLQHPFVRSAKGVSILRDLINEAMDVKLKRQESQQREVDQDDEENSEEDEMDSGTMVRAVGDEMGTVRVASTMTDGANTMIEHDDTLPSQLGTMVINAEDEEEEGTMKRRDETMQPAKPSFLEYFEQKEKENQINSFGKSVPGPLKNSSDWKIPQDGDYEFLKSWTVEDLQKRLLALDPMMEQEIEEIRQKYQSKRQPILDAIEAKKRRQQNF
Summary of the method: as §1

P70S6KB1 = molecular target: T7, P70S6KB1 (Homo sapiens, UniProt P23443)
T7 construct: purchased Nanosyn (enzymatic panel); SGC in-house recombinant human kinases (DSF panel); Invitrogen (ALK1-6)
T7 sequence (P23443 whole entry): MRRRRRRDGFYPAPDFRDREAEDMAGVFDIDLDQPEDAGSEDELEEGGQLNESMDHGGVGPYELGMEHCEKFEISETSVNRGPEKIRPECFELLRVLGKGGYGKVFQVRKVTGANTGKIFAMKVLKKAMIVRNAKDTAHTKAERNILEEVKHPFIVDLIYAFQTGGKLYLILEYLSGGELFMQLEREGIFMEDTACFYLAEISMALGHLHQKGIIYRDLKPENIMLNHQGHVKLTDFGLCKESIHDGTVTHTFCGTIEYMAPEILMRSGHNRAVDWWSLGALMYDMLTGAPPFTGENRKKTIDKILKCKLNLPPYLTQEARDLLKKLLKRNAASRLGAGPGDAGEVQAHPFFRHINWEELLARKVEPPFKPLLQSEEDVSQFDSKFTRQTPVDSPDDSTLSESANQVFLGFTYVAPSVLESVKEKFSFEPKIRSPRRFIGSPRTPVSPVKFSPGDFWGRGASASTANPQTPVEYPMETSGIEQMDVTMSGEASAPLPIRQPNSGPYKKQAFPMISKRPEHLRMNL
Summary of the method: as §1

LYNA = molecular target: T8, LYNA (Homo sapiens, UniProt P07948)
T8 construct: purchased Nanosyn (enzymatic panel); SGC in-house recombinant human kinases (DSF panel); Invitrogen (ALK1-6)
T8 sequence (P07948 whole entry): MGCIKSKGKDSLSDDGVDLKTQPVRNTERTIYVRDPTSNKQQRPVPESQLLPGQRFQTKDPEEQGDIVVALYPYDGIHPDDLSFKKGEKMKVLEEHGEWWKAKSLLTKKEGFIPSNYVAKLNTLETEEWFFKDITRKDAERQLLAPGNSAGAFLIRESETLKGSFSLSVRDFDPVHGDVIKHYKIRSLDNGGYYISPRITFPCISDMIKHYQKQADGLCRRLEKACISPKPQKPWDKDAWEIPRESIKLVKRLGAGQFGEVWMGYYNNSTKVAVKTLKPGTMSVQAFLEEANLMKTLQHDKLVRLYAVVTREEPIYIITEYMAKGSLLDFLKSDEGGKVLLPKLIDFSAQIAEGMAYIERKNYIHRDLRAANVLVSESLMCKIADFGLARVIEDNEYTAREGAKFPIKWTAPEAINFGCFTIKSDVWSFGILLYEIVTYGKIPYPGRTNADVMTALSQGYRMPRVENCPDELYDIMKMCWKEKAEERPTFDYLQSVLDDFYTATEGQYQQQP
Summary of the method: as §1

TNK1 = molecular target: T9, TNK1 (Homo sapiens, UniProt Q13470)
T9 construct: purchased Nanosyn (enzymatic panel); SGC in-house recombinant human kinases (DSF panel); Invitrogen (ALK1-6)
T9 sequence (Q13470 1-666): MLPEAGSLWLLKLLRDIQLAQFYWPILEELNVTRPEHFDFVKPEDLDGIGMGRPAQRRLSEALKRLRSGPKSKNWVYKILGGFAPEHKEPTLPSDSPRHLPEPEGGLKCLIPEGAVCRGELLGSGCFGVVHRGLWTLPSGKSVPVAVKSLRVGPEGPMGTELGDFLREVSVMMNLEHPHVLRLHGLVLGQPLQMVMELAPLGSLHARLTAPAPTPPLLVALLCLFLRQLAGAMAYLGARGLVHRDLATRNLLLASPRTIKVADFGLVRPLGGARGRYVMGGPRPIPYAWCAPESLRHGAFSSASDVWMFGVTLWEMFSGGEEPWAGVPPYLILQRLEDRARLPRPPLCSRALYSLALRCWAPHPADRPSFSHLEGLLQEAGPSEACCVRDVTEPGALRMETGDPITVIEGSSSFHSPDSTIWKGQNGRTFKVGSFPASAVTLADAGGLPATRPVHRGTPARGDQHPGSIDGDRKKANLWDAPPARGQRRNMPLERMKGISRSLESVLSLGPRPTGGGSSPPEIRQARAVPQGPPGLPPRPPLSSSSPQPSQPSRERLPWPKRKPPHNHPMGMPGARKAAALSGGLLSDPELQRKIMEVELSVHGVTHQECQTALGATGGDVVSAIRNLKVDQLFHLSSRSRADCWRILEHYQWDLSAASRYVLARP
Summary of the method: as §1

RSK3 = molecular target: T10, RSK3 (Homo sapiens, UniProt Q15349)
T10 construct: purchased Nanosyn (enzymatic panel); SGC in-house recombinant human kinases (DSF panel); Invitrogen (ALK1-6)
T10 sequence (Q15349 whole entry): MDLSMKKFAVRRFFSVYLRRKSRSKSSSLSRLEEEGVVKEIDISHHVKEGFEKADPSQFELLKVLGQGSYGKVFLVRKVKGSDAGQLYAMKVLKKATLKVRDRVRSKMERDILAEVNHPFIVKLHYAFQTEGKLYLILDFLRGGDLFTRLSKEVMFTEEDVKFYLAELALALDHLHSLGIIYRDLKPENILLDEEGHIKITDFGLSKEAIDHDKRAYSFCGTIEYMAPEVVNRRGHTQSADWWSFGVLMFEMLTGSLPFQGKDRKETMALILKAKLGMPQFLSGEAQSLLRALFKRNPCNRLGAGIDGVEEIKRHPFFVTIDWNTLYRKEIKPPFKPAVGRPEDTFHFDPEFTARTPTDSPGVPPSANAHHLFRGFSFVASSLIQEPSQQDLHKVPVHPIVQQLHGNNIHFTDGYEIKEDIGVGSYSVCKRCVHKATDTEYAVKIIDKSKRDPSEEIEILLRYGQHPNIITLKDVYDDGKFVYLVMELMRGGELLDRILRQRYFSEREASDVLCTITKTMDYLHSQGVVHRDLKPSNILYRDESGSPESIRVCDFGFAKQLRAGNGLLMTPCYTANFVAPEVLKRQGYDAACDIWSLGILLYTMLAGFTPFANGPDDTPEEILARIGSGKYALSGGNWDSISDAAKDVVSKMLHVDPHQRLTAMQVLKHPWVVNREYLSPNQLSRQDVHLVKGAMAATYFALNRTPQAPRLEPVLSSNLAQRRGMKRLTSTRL
Summary of the method: as §1

T1 sequence (P10721 26-976): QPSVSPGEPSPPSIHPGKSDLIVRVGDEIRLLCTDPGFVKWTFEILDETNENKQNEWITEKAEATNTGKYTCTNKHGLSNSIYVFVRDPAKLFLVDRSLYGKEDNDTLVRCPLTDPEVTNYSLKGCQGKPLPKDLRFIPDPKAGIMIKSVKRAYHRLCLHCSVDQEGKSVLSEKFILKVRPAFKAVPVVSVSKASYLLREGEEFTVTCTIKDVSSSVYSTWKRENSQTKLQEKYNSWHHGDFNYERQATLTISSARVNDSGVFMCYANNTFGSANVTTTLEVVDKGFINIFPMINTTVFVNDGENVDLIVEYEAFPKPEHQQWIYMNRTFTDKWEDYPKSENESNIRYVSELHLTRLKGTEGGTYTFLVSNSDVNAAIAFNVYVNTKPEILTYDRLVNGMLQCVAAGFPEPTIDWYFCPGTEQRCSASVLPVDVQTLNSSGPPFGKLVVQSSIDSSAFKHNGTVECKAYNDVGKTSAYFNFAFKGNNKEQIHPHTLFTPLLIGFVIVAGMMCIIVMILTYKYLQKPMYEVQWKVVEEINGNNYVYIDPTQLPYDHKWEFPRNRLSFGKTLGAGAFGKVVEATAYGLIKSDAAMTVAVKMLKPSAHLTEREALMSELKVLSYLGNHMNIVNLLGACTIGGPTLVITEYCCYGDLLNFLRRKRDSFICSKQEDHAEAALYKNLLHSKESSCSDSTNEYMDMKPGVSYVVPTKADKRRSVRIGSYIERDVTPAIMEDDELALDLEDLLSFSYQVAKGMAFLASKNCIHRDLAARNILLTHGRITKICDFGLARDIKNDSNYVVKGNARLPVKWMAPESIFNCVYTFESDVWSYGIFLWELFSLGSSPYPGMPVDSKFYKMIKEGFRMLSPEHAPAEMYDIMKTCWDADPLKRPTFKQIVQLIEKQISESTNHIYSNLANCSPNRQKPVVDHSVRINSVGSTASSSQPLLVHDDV

Compound | inhibition at 0.1 µM (KIT) [%] | inhibition at 1 µM (KIT) [%] | inhibition at 0.1 µM (BMX) [%] | inhibition at 1 µM (BMX) [%] | inhibition at 0.1 µM (MAPK3) [%] | inhibition at 1 µM (MAPK3) [%] | inhibition at 0.1 µM (SYK) [%] | inhibition at 1 µM (SYK) [%] | inhibition at 0.1 µM (PDGFRβ) [%] | inhibition at 1 µM (PDGFRβ) [%] | inhibition at 0.1 µM (MST1) [%] | inhibition at 1 µM (MST1) [%] | inhibition at 0.1 µM (P70S6KB1) [%] | inhibition at 1 µM (P70S6KB1) [%] | inhibition at 0.1 µM (LYNA) [%] | inhibition at 1 µM (LYNA) [%] | inhibition at 0.1 µM (TNK1) [%] | inhibition at 1 µM (TNK1) [%] | inhibition at 0.1 µM (RSK3) [%] | inhibition at 1 µM (RSK3) [%]
COc1cc(-c2cc(-c3cccc(O)c3)cnc2N)cc(OC)c1OC [K02288, 3-[6-amino-5-(3,4,5-trimethoxy-phenyl)-pyridin-3-yl]-phenol] | 4 | 9.2 | 0.5 | 19 | 0 | -1 | 0 | -2 | 7.7 | 43 | -1 | 1.1 | -2 | -1 | 9.7 | 49 | 0.4 | 10 | 0.6 | 1.1
c1ccc2c(-c3cnn4cc(-c5ccc(N6CCNCC6)cc5)cnc34)ccnc2c1 [LDN-193189] | 7 | 41 | 0.2 | 4 | 1.9 | -2 | -1 | -12 | 39 | 75 | 4 | 7.9 | 1 | 0.6 | 9.1 | 39 | 18 | 63 | 1.5 | 5.6

From PMC3639963, “A New Class of Small Molecule Inhibitor of BMP Signaling” (PLoS ONE, 2013)
